Experimental data published in DBAASP.
Values after ≈ are worked out from the molar mass of the structure shown. Values belong to the compound of their own block, whether it stands above or below them.

What was measured:
Test in all cases: ≥ marks a high value that may be exact or a test limit, other limits are often not marked, values filed in µg/mL are converted to µM
Enterococcus faecium = system: Enterococcus faecium
[1] = system: Bacillus subtilis KCTC 3068
Enterococcus faecium VR = system: Enterococcus faecium VR
[2] = system: Staphylococcus aureus KCTC 1621
[3] = system: Escherichia coli KCTC 1682
[4] = system: Salmonella typhimurium KCTC 1926
Staphylococcus aureus MR = system: Staphylococcus aureus MR
Enterococcus faecalis = system: Enterococcus faecalis
Enterococcus faecalis VR = system: Enterococcus faecalis VR
[5] = system: Staphylococcus epidermidis KCTC 1917
[6] = system: Pseudomonas aeruginosa KCTC 1637
[7] = system: Enterococcus faecalis ATCC 12953
[8] = system: Escherichia coli ATCC 8739
[9] = system: Klebsiella pneumoniae ATCC 13885
[10] = system: Escherichia coli KpC+001812446
[11] = system: Escherichia coli KpC+002101123
[12] = system: Bacillus subtilis ATCC 6633
[13] = system: Streptococcus pyogenes ATCC 19615
[14] = system: Klebsiella pneumoniae KpC+001825971
[15] = system: Proteus mirabilis ATCC 25933
[16] = system: Salmonella enterica subsp. enterica serovar Typhimurium ATCC 14028
[17] = system: Staphylococcus aureus ATCC 29213
[18] = system: Pseudomonas aeruginosa ATCC 15442
[19] = system: Staphylococcus aureus ATCC 33591
[20] = system: Staphylococcus aureus ATCC 25923
[21] = system: Pseudomonas aeruginosa ATCC 27853
[22] = system: Escherichia coli ATCC 25922
[23] = system: Escherichia coli CCARM 1238
[24] = system: Salmonella typhimurium CCARM 8013
[25] = system: Pseudomonas aeruginosa 5018
[26] = system: Pseudomonas aeruginosa 3592
[27] = system: Listeria monocytogenes KCTC 3710
[28] = system: Escherichia coli CCARM 1229
[29] = system: Salmonella typhimurium CCARM 8009
[30] = system: Staphylococcus aureus CCARM 3709
[31] = system: Staphylococcus aureus CCARM 3114
[32] = system: Candida albicans ATCC 10231
[33] = system: Klebsiella pneumoniae ATCC 700603
[34] = system: Streptococcus pneumoniae ATCC 49619
[35] = system: Aspergillus niger ATCC 16404
[36] = system: Staphylococcus aureus ATCC 9144
[37] = system: Pseudomonas aeruginosa ATCC 9027
[38] = system: Candida glabrata ATCC 15126
[39] = system: Escherichia coli ATCC 23506
[40] = system: Enterococcus faecalis PCM 2673
[41] = system: Salmonella enterica subsp. enterica serovar Enteritidis CVCC 3377
[42] = system: Streptococcus suis CVCC 606
[43] = system: Klebsiella pneumoniae H507
[44] = system: Listeria monocytogenes ATCC 19115

MIC (Enterococcus faecium): 30 µM | MIC [1]: 7.5 µM | MIC (Enterococcus faecium VR): 7.5 µM | MIC [2]: 15 µM | MIC [3]: 15 µM | MIC [4]: 15 µM | MIC (Staphylococcus aureus MR): 15 µM | MIC (Enterococcus faecalis): 30 µM | MIC (Enterococcus faecalis VR): 30 µM | MIC [5]: 7.5 µM | MIC [6]: 15 µM
Structure (SMILES): CC[C@H](C)[C@H](NC(=O)[C@H](CC(C)C)NC(=O)[C@H](CS)NC(=O)[C@H](Cc1cnc[nH]1)NC(=O)[C@H](C)NC(=O)[C@H](C)N)C(=O)NCC(=O)N[C@@H](CCCN=C(N)N)C(=O)N[C@@H](CCCCN)C(N)=O [AAHCLIGRK]

MIC [7]: 1.5 µM (≈ 4.87 µg/mL) | MIC [8]: 12 µM (≈ 39 µg/mL) | MIC [9]: 3 µM (≈ 9.75 µg/mL) | MIC [10]: 6 µM (≈ 19.5 µg/mL) | MIC [11]: 6 µM (≈ 19.5 µg/mL) | MIC [12]: 1.5 µM (≈ 4.87 µg/mL) | MIC [13]: 6 µM (≈ 19.5 µg/mL) | MIC [14]: 3 µM (≈ 9.75 µg/mL) | MIC [15]: 6 µM (≈ 19.5 µg/mL) | MIC [16]: 3 µM (≈ 9.75 µg/mL) | MIC [17]: 24 µM (≈ 78 µg/mL) | MIC [18]: 3 µM (≈ 9.75 µg/mL) | MIC [19]: 6 µM (≈ 19.5 µg/mL)
Structure (SMILES): CC[C@H](C)[C@H](NC(=O)[C@H](CCCCN)NC(=O)CNC(=O)[C@H](CC(C)C)NC(=O)[C@H](Cc1ccccc1)NC(=O)[C@H](CCC(N)=O)NC(=O)[C@H](Cc1ccccc1)NC(=O)[C@@H](NC(=O)[C@@H](NC(=O)[C@@H](NC(=O)[C@@H]1CCCN1C(=O)[C@H](CC(C)C)NC(=O)[C@@H](N)Cc1ccccc1)[C@@H](C)CC)[C@@H](C)CC)C(C)C)C(=O)N[C@H](C(=O)N[C@@H](Cc1cnc[nH]1)C(=O)N[C@@H](Cc1cnc[nH]1)C(=O)N[C@H](C(=O)NCC(=O)N[C@@H](CC(N)=O)C(=O)N[C@@H](Cc1ccccc1)C(=O)N[C@H](C(=O)N[C@@H](Cc1cnc[nH]1)C(=O)NCC(=O)N[C@@H](Cc1ccccc1)C(=O)N[C@@H](CO)C(=O)N[C@@H](Cc1cnc[nH]1)C(=O)N[C@H](C(=O)N[C@@H](Cc1ccccc1)C(N)=O)C(C)C)C(C)C)C(C)C)[C@@H](C)CC [FLPIIVFQFLGKIIHHVGNFVHGFSHVF]

MIC [20]: > 32 µM | MIC [21]: > 32 µM | MIC [22]: > 32 µM | MIC [23]: ≥ 32 µM | MIC [24]: ≥ 32 µM | MIC [25]: ≥ 32 µM | MIC [26]: ≥ 32 µM | MIC [27]: ≥ 32 µM | MIC [28]: ≥ 32 µM | MIC [4]: ≥ 32 µM | MIC [29]: ≥ 32 µM | MIC [30]: ≥ 32 µM | MIC [31]: ≥ 32 µM
Structure (SMILES): CC[C@H](C)[C@H](NC(=O)CN)C(=O)N[C@@H](Cc1cnc[nH]1)C(=O)N[C@@H](Cc1cnc[nH]1)C(=O)N[C@H](C(=O)N[C@@H](CC(C)C)C(=O)N[C@@H](CCCCN)C(=O)N[C@@H](Cc1ccc(O)cc1)C(=O)NCC(=O)N[C@@H](CCCCN)C(=O)N1CCC[C@H]1C(=O)N[C@@H](CO)C(=O)O)[C@@H](C)CC [GIHHILKYGKPS]

MIC [20]: 72.3 µM (≈ 128 µg/mL) | MIC [22]: 72.3 µM (≈ 128 µg/mL) | MIC [32]: 145 µM (≈ 256 µg/mL) | MIC [33]: 1.13 µM (≈ 2 µg/mL) | MIC [34]: ≥ 72.3 µM | MIC [35]: ≥ 145 µM | MIC [36]: ≥ 36.1 µM | MIC [37]: 4.52 µM (≈ 8 µg/mL) | MIC [38]: ≥ 145 µM | MIC [39]: ≥ 36.1 µM | MIC [40]: ≥ 36.1 µM
Structure (SMILES): CC[C@H](C)[C@H](NC(=O)CNC(=O)[C@H](C)NC(=O)[C@@H](NC(=O)[C@H](CC(C)C)NC(=O)[C@H](CCCCN)NC(=O)[C@@H](NC(=O)[C@@H](N)CC(C)C)C(C)C)C(C)C)C(=O)N[C@@H](CCCCN)C(=O)N[C@@H](CCCCN)C(=O)N[C@@H](Cc1ccccc1)C(=O)N[C@@H](CC(C)C)C(=O)N[C@@H](CCCCN)C(=O)N[C@@H](Cc1c[nH]c2ccccc12)C(=O)N[C@@H](CCCCN)C(N)=O [LVKLVAGIKKFLKWK]

MIC [20]: 0.986 µM (≈ 3.1 µg/mL) | MIC [21]: 3.97 µM (≈ 12.5 µg/mL) | MIC [22]: 0.986 µM (≈ 3.1 µg/mL) | MIC [12]: 7.95 µM (≈ 25 µg/mL) | MIC [41]: 2 µM (≈ 6.3 µg/mL) | MIC [42]: 0.986 µM (≈ 3.1 µg/mL) | MIC [43]: 7.95 µM (≈ 25 µg/mL) | MIC [44]: 3.97 µM (≈ 12.5 µg/mL)
Structure (SMILES): CC[C@H](C)[C@H](NC(=O)[C@H](Cc1ccccc1)NC(=O)[C@H](CC(=O)O)NC(=O)[C@H](CCCCN)NC(=O)[C@H](CCCCN)NC(=O)[C@H](CCC(=O)O)NC(=O)[C@H](Cc1c[nH]c2ccccc12)NC(=O)[C@@H](NC(=O)[C@@H](NC(=O)[C@H](CCCCN)NC(=O)[C@@H](NC(=O)[C@H](CCCCN)NC(=O)[C@H](CCCN=C(N)N)NC(=O)[C@H](CCCN=C(N)N)NC(=O)[C@H](CCSC)NC(=O)[C@@H](NC(=O)[C@H](CCCN=C(N)N)NC(=O)[C@H](CCSC)NC(=O)[C@@H](N)CCSC)C(C)C)[C@@H](C)O)C(C)C)[C@@H](C)CC)C(=O)NCC(=O)N[C@@H](CC(C)C)C(=O)N[C@@H](Cc1ccc(O)cc1)C(=O)N[C@@H](CO)C(=O)N[C@H](C(=O)N[C@@H](CC(=O)O)C(=O)O)[C@@H](C)CC [MMRVMRRKTKVIWEKKDFIGLYSID]
